# Experiments:
# [1] = biological target: T1, Ba/F3 Pro B-cell line expressing BCR-human AXL kinase domain fusion protein (Homo sapiens, UniProt P30530); test: Assay 5 Ba/F3 cell survival assay, BCR-Axl; format: cell-based; conditions: read-out: BCR-Axl Ba/F3 IC50, 48 h, CellTiter-Glo
# T1 construct: P11274 (Breakpoint cluster region protein)
# T1 sequence (P30530 536-807 limits assumed): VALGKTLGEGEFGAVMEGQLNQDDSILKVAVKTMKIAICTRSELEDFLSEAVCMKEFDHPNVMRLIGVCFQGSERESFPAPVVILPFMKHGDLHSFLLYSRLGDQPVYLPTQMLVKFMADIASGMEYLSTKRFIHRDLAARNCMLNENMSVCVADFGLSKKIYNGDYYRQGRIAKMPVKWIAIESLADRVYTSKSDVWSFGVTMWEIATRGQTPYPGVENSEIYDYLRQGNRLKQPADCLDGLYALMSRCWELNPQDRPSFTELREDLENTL
# Description: (§1) Assay 5—Ba/F3 Cell Survival Assays.
# (§2) The inhibitory potencies of compounds were assessed in a Ba/F3 cell survival assay, using the Ba/F3 Pro B-cell line, recombinantly expressing a BCR-human AXL kinase domain fusion protein (pACD320/AXL, Advanced Cellular Dynamics Inc), TEL-human MERTK fusion domain (pACD1000/MERTK, Advanced Cellular Dynamics Inc), TEL-human Tyro3 fusion domain (pACD1000/TYRO3, Advanced Cellular Dynamics Inc), or control TEL-none (ACD320, Advanced Cellular Dynamics Inc) BRC-none constructs (ACD1000, Advanced Cellular Dynamics Inc). 10 ng/mL recombinant murine IL3 (R&D, 403-ML-010) was included in the media when propagating negative control TEL-none or BCR-none lines only. […] The final assay DMSO concentration was 0.25%. Compound incubations were conducted for 48 h at 37° C./5% CO2, after which cell plate was equilibrated at room temperature for 20 minutes prior to assessing viability. 15 μl of Promega CellTiter-Glo reagent (G7572) was added to each well for 2 min on an orbital shaker to induce cell lysis.
# (§3) The plate was then equilibrated for 5 min at room temperature and luminescence read on a BMG Pherastar FSX using the LUM plus optic module. […] Competition curves were then fit to a 4 parameter logistic equation including a variable slope factor to determine the IC50 (compound concentration causing a half-maximal inhibition of cell survival).
# [2] = biological target: T2, human MERTK cytoplasmic domain (Homo sapiens, UniProt Q12866); test: biochemical; conditions: 30 uM ATP; read-out: Assay 1a Mer IC50 30 uM ATP
# T2 construct: human MERTK cytoplasmic domain (Carna Biosciences 08-108); purchased Carna Biosciences 08-108
# T2 sequence (Q12866 527-999): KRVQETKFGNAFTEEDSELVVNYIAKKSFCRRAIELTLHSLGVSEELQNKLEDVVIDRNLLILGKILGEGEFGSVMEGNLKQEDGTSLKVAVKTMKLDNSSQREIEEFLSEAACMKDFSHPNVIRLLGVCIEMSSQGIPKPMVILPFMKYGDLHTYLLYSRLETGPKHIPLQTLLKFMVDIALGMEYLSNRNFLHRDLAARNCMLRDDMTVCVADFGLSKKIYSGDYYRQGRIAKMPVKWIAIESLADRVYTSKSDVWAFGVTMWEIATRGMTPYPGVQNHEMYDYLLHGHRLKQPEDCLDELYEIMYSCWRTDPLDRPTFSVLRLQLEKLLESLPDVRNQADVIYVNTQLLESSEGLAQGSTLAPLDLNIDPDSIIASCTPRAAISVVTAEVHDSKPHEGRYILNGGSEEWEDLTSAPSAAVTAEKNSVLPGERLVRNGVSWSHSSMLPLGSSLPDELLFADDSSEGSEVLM
# Description: Assay 1a—MERTK HTRF KinEASE-TK Assay
# The enzymatic reaction was carried out for 30 min at room temperature. 10 μL TK Antibody-Cryptate/Streptavidin-XL665 (Cisbio 610SAXLG) was then added for 60 min, including EDTA containing detection buffer (Cisbio 62SDBRDF) to stop the reaction.
# [3] = biological target: T3, Ba/F3 Pro B-cell line expressing TEL-human MERTK fusion domain (Homo sapiens, UniProt Q12866); format: cell-based; conditions: cell survival, 48 h, CellTiter-Glo; read-out: TEL-MERTK Ba/F3 IC50
# T3 sequence (Q12866 587-858 limits assumed): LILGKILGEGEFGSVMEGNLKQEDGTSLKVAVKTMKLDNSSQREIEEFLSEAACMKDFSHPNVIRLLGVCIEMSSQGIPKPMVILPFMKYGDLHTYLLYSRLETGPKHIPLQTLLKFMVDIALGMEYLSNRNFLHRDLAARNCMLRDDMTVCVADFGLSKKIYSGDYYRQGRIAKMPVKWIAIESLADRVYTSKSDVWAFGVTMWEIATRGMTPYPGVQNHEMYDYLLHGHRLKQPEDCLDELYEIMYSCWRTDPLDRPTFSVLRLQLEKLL
# Description: as §1, §2, §3
# [4] = biological target: T4, Ba/F3 Pro B-cell line expressing TEL-human Tyro3 fusion domain (Homo sapiens, UniProt Q06418); format: cell-based; conditions: cell survival, 48 h, CellTiter-Glo
# T4 sequence (Q06418 518-790 limits assumed): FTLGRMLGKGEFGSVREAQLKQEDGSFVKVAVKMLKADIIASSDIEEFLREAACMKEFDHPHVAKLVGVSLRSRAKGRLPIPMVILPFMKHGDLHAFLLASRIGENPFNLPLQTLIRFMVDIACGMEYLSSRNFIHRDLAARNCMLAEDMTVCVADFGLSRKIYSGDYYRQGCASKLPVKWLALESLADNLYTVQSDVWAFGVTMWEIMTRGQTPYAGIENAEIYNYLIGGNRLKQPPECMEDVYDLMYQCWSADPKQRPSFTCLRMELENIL
# Description: as §1
# as §2, with “only. Cells were maintained in RMPI 1640 (Corning 15-040-CV) culture media containing 10% heat inactivated semi-synthetic FBS (RMBIO FGR-BBT), 2 mM L-Glutamine (Sigma, G7513), 100 IU/mL Penicillin-[…] Streptomycin (Sigma, P4333), and 500 ng/mL Puromycin (Sigma, P8833). Experiments were performed in 50 μl growth media, including the test compounds of interest, and dispensing 5000 cells/well in logarithmic-phase growth into a 384 well white Optiplate (Perkin Elmer 6007299).” for “only.”
# The plate was then equilibrated for 5 min at room temperature and luminescence read on a BMG Pherastar FSX using the LUM plus optic module. Data were normalised to measurements in the absence of competing compound (0% inhibition). Competition curves were then fit to a 4 parameter logistic equation including a variable slope factor to determine the IC50 (compound concentration causing a half-maximal inhibition of cell survival).
# [5] = biological target: T5, human AXL cytoplasmic domain (Homo sapiens, UniProt P30530); test: Assay 1b AXL HTRF KinEASE-TK assay; format: biochemical
# T5 construct: human AXL cytoplasmic domain (Thermo Fisher A31515); purchased Thermo Fisher A31515
# T5 sequence (P30530 473-894 limits assumed): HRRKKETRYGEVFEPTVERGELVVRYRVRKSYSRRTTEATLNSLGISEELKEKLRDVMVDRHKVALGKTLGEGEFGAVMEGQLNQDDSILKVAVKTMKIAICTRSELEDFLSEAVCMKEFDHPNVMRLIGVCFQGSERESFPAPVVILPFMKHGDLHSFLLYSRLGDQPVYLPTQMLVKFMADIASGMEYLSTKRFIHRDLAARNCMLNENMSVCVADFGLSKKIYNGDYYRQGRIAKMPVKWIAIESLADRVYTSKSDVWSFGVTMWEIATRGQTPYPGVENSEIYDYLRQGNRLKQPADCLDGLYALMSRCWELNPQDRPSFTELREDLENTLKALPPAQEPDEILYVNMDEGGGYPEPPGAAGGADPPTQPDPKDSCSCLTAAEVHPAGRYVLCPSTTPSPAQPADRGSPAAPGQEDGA
# Description: Assay 1b—AXL HTRF KinEASE-TK Assay
# Compound inhibition of human AXL cytoplasmic domain (Thermo Fisher A31515) enzymatic activity was tested via the HTRF KinEASE-tyrosine kinase (TK) kit (Cisbio 62TK0PEC). Experiments were performed in 20 μl enzymatic buffer (Cisbio 62EZBFDD) supplemented with 5 mM MgCl2, 1 mM MnCl2, 1 mM DTT, 50 nM SEB (Cisbio, 61SEBALB), with 5 nM of AXL and the test compounds of interest. […] The enzymatic reaction was carried out for 30 min at room temperature. 10 μL TK Antibody-Cryptate/Streptavidin-XL665 (Cisbio 610SAXLG) was then added for 60 min, including EDTA containing detection buffer (Cisbio 62SDBRDF) to stop the reaction. The plate was read on a BMG Pherastar FSX using a HTRF 337/620/665 optical module to excite the terbium donor at 337 nm, and record donor emission at 620 nm and acceptor fluorophore emission at 665 nm. From this the FRET ratio (acceptor 665 nm/donor 620 nm) for each data point was calculated. […] Competition curves were then fit to a 4 parameter logistic equation including a variable slope factor to determine the IC50 (compound concentration that inhibits 50% of AXL activity).
IC50 [2] [nM],IC50 [5] [nM],SMILES,IC50 [1] [nM],IC50 [3] [nM],IC50 [4] [nM]
2,20,"O=C(Nc1ccc(Oc2ccnc3cnc(N4CCN(C5COC5)CC4)cc23)cn1)c1cccn(-c2ccc(F)cc2)c1=O [Example 10.2, 1-(4-fluorophenyl)-N-[5-[[6-[4-(oxetan-3-yl)piperazin-1-yl]-1,7-naphthyridin-4-yl]oxy]-2-pyridyl]-2-oxo-pyridine-3-carboxamide]",14,17,394
4,77,"CN1CCC(NC(=O)c2cc3c(Oc4ccc(NC(=O)c5cccn(-c6ccc(F)cc6)c5=O)nc4)ccnc3cn2)CC1 [Example 11, 4-[[6-[[1-(4-fluorophenyl)-2-oxo-pyridine-3-carbonyl]amino]-3-pyridyl]oxy]-N-(1-methyl-4-piperidyl)-1,7-naphthyridine-6-carboxamide]",32,52,251
3,5,"CC(C)n1cc(C(=O)Nc2ccc(Oc3ccnc4cnc(N5CCNCC5)cc34)cc2)c(=O)n(-c2ccc(F)cc2)c1=O [Example 12.5, 3-(4-fluorophenyl)-1-isopropyl-2,4-dioxo-N-[4-[(6-piperazin-1-yl-1,7-naphthyridin-4-yl)oxy]phenyl]pyrimidine-5-carboxamide]",5,38,428
3,31,"O=C(Nc1ccc(Oc2ccnc3cnc(N4CCNCC4)cc23)cc1)c1cccc(-c2ccc(F)cc2)[n+]1[O-] [Example 12.6, 6-(4-fluorophenyl)-1-oxido-N-[4-[(6-piperazin-1-yl-1,7-naphthyridin-4-yl)oxy]phenyl]pyridin-1-ium-2-carboxamide]",6,16,110
19,264,"CN1CCC(c2cc3c(Oc4ccc(NC(=O)c5cccn(-c6ccc(F)cc6)c5=O)nc4)ccnc3cn2)CC1 [Example 16, 1-(4-Fluorophenyl)-N-[5-[[6-(1-methyl-4-piperidyl)-1,7-naphthyridin-4-yl]oxy]-2-pyridyl]-2-oxo-pyridine-3-carboxamide]",22,14,931
4,27,"CC(C)(C)OC(=O)N1CCC(c2cc3c(Oc4ccc(NC(=O)c5cccn(-c6ccc(F)cc6)c5=O)nc4)ccnc3cn2)C1 (stereo not drawn) [Example 16.1, tert-butyl 3-[4-[[6-[[1-(4-fluorophenyl)-2-oxo-pyridine-3-carbonyl]amino]-3-pyridyl]oxy]-1,7-naphthyridin-6-yl]pyrrolidine-1-carboxylate]",76,70,1930
3,18,"O=C(Nc1ccc(Oc2ccnc3cnc(C4=CCN(C5COC5)CC4)cc23)cn1)c1cccn(-c2ccc(F)cc2)c1=O [Example 16.2, 1-(4-fluorophenyl)-N-[5-[[6-[1-(oxetan-3-yl)-3,6-dihydro-2H-pyridin-4-yl]-1,7-naphthyridin-4-yl]oxy]-2-pyridyl]-2-oxo-pyridine-3-carboxamide]",15,14,144
13,282,"CC(C)(C)OC(=O)N1CCC(c2cc3c(Oc4ccc(NC(=O)c5cccn(-c6ccc(F)cc6)c5=O)nc4)ccnc3cn2)CC1 [Example 16.4, tert-butyl 4-[4-[[6-[[1-(4-fluorophenyl)-2-oxo-pyridine-3-carbonyl]amino]-3-pyridyl]oxy]-1,7-naphthyridin-6-yl]piperidine-1-carboxylate]",154,195,> 2500
4,240,"CN1CCC(c2cc3c(Oc4ccc(NC(=O)c5cccn(-c6ccc(F)cc6)c5=O)cc4)ccnc3cn2)CC1 [Example 17, 1-(4-fluorophenyl)-N-[4-[[6-(1-methyl-4-piperidyl)-1,7-naphthyridin-4-yl]oxy]phenyl]-2-oxo-pyridine-3-carboxamide]",31,25,186

# From patent US20230203029A1 (priority 2020, published 2023)
